According to US6759238B1, “Multidrug resistance associated proteins and uses thereof” (priority 1999, dated 2004):
Values joined by “and” are separate entries in the source; they are usually repeats but may differ in a detail not shown here. Equal entries are not always repeated. Where two headings read alike, the source gives them in different places.

Tests used:
CEM-SS cells [1] = test: Phosphorylation of AZT; type: in vitro ADME, human; details: 10 μM AZT
Description: (§1) The appearance of the phosphorylated metabolites into the medium was also determined in both the cell lines. AZTDP and AZTTP were not detected in the medium of either CEM-SS or CEM-r1 cells. However, the amount of AZTMP accumulated in the media was approximately 3-fold higher in CEM-r1 cells than in CEM-SS cells.
(§2) The cartridges were conditioned with 10% MeOH Ammonium Phosphate Buffer (5 mM, pH 4.0). The sample was loaded onto the column. […] AZTDP and AZTTP were eluted with 10% MeOH Ammonium Phosphate Buffer (700 mm, pH 4.6).

CEM-r1 cells [2] = test: Phosphorylation of AZT; type: in vitro ADME, human; details: for Extracellular Concentration / Intracellular Concentration: CEM-r1, 10 μM AZT
Description: as §1, §2

[3] = Efflux of [3H]-AZT and its metabolites; type: in vitro ADME, human; parameters: half-life: dose or concentration left out as unconfirmed; details: human, CEMss, read-out: Efflux kinetics, AZTMP t½
Description: (§3) Cells were incubated for 60 minutes with [^3H]-AZT (10 μM) after which they were washed free of radioactivity, resuspended in drug-free medium and the intracellular and the extracellular concentration of [^3H]-AZT were measured. […] At least 80% of the AZTMP present intracellularly in CEM-r1 cells was excreted into the medium in 10 minutes (FIG. 6A).
(§4) Referring to Table 6 in greater detail, efflux kinetics were studied. Transport analysis of PMEA was conducted as previously described^48. […] The cells were then washed free of radioactivity and then incubated in drug-free medium in the presence of sodium azide and 2-deoxy-D-glucose. At various time periods, the amount of intracellular AZTMP was measured. As reported in Table 6, depletion of ATP led to an inhibition of AZTMP efflux (i.e. a significant accumulation of AZTMP in the CEM-r1 cells but not in the CEM-SS cells).
(§5) The suspension was centrifuged at 3,300 rpm for 7 minutes. All but 1 ml of the supernatant medium containing the free drug was aspirated. […] The cell pellet was then washed with ice-cold medium and resuspended at the same concentration in drug-free medium and maintained at 37° C. […] An aliquot of the top layer (cell free media) was analyzed for the quantitation of AZT and its metabolites.

CEM-SS cells [4] = test: Efflux of [3H]-AZT and its metabolites; type: in vitro ADME, human; parameters: half-life: dose or concentration left out as unconfirmed; details: CEMss, no treatment, after loading with [3H]-AZT
Description: as §3, §4, §5

[5] = Efflux of [3H]-AZT and its metabolites; type: in vitro ADME, human; details: human, read-out: Efflux kinetics, AZTMP t½
Description: as §3, §4, §5

CEM-r1 cells [6] = test: Efflux of [3H]-AZT and its metabolites; type: in vitro ADME, human
Description: as §3, §4, §5

[7] = test system: AZTMP efflux in CEM-SS cells; test: Effect of inhibitors of ATP-coupled transporters on AZTMP efflux; type: cell-based, human; details: PGA1 50 μM, DPM 10 μM
Description: (§6) The suspension was centrifuged at 3,300 rpm for 7 minutes. All but 1 ml of the supernatant medium containing the free drug was aspirated. […] The cell pellet was then washed with ice-cold medium and resuspended at the same concentration in drug-free medium and maintained at 37° C.

[8] = test system: AZTMP efflux in CEM-r1 cells; test: as above; type: cell-based, human; details: PGA1 50 μM, DPM 10 μM
Description: as §6

[9] = CEMr-1, no treatment, after loading with [3H]-AZT

With `Cc1cn([C@H]2C[C@H](N=[N+]=[N-])[C@@H](COP(=O)(O)O)O2)c(=O)[nH]c1=O` [AZTMP, azido-thymidine monophosphate] the “Extracellular Concentration” value (CEM-SS cells [1]; 4 hours) was 46 nM, the “Intracellular Concentration” value (CEM-SS cells [1]; 4 hours) was 89 µM and the “Extracellular Concentration” value (CEM-SS cells [1]; 8 hours) was 151 nM. The “Intracellular Concentration” value (CEM-SS cells [1]; 8 hours) was 95 µM, the “Extracellular Concentration” value (CEM-SS cells [1]; 24 hours) was 555 nM and the “Intracellular Concentration” value (CEM-SS cells [1]; 24 hours) was 50 µM. The “Amount accumulated in the media, CEM-r1 vs CEM-SS” value (CEM-r1 cells [2]; 10 μM AZT) was “approximately 3 fold”, the “Extracellular Concentration” value (CEM-r1 cells [2]; 4 hours) was 132 nM and the “Intracellular Concentration” value (CEM-r1 cells [2]; 4 hours) was 13.6 µM. The “Extracellular Concentration” value (CEM-r1 cells [2]; 8 hours) was 420 nM, the “Intracellular Concentration” value (CEM-r1 cells [2]; 8 hours) was 15.9 µM and the “Extracellular Concentration” value (CEM-r1 cells [2]; 24 hours) was 1716 nM. The “Intracellular Concentration” value (CEM-r1 cells [2]; 24 hours) was 12.3 µM, the half-life at 10 μM ([3]; Azide + Deoxyglucose) was 16.3 min and the half-life ([3]; no treatment, after loading with [3H]-AZT) was 17.5 min. For the same compound, the “Efflux kinetics, AZTMP t½” value (CEM-SS cells [4]) was 17.1 min, the half-life at 10 μM ([5]; CEMr-1, Azide + Deoxyglucose) was 18.1 min and the half-life at 10 μM [5, 9] was 4.5 min. The “Intracellular AZTMP excreted into the medium” value (CEM-r1 cells [6]; CEM-r1, in 10 minutes) was “At least 80%” and the “Efflux kinetics, AZTMP t½” value (CEM-r1 cells [6]; [9]) was 4 min and 4.3 min.
With `CCCCC[C@H](O)/C=C/[C@H]1C=CC(=O)[C@@H]1CCCCCCC(=O)O` [PGA1, prostaglandin A1] the “Effect on efflux of AZTMP” value [7] was “no effect” and the “Effect on efflux of AZTMP” value [8] was “markedly inhibited”.
